Reference: patent publication US20240384250A1, “FIBROBLAST GROWTH FACTOR 23 MODULATING COMPOUNDS” (THE UAB RESEARCH FOUNDATION, priority 2021, published 2024)
Entries after “also recorded” stand apart in the source; their conditions may differ.

Legend:
[1] = tested on: adult rat ventricular myocytes (ARVMs); assay: Calcium transients and cell shortening in adult rat ventricular myocytes; assay type: cell-based
Experimental: As done before,^69 adult male Wistar rats (150-200 g) were killed and hearts were quickly removed and cannulated via the ascending aorta on a Langendorff system where they were retrograde perfused and digested by type II collagenase. Hearts were perfused with calcium-free Tyrode's solution supplemented with 0.2 mmol/L of ethyleneglycol-bis-((3-aminoethylether)-N,N, N′,N′-tetraacetic acid for 3 minutes. For the digestion, hearts were perfused with Tyrode's solution containing 0.1 mmol/L of CaCl2), 1 mg/ml of type II collagenase (Worthington), and 1 mg/ml of BSA for 3 to 4 minutes at room temperature. Cells were resuspended in Tyrode's solution containing 1 mmol/L of CaCl2). Tyrode's solution contains 130 mM NaCl, 5.4 mM KCl, 0.4 mM NaH2PO4, 0.5 mM MgCl2, 25 mM N-2-hydroxyethylpiperazine-N-2-ethanesulfonic acid, and 22 mM glucose. Adult rat ventricular myocytes (ARVMs) were loaded with the fluorescent Ca^2+ dye Fluo-3 AM (Thermo Fisher Scientific) for cytosolic Ca^2+ measurements. Loaded ARVMs were acutely perfused during 2 minutes with vehicle, FGF23 (10 ng/ml), or a combination of FGF23 and heparin (0.7 USP/ml). Cytosolic Ca^2+ transients were recorded under 1 Hz of field stimulation using 2 parallel platinum electrodes. Images were obtained with confocal microscopy (Zeiss LSM 510-META microscope), using a 40× objective by scanning the cell with an argon laser every 1.54 ms. Fluo-3 AM was excited at 488 nm, and emissions were collected at >505 nm. Cell contraction was stimulated as the difference in cell length between rest and contraction (during electrical stimulation), expressed as a percentage of shortening of the cell length. Image analysis was performed with self-made routines using IDL (Research Systems) and ImageJ (v1.53) software.

FGF7 binding to FGFR1c = target: T1, FGF7 binding to FGFR1c (Homo sapiens, UniProt P11362); assay: Plate-based binding of paracrine FGF to Fc-FGFR1c with heparin and/or sKL; conditions: 0.4 USP heparin
T1 construct: a chimeric protein consisting of the FGFR1 ectodomain and the Fc region of a human IgG; purchased R&D Systems 251-KG/CF; 658FR050
Experimental: (§1) Proteins were coated on 96-well plates (MaxiSorp; 439454, Thermo Fisher Scientific), and proteins were added to wells in 100 μl of enzyme-linked immunosorbent assay (ELISA) coating buffer (E107, Bethyl Laboratories) with a lid placed overtop and incubated at 4° C. overnight. Plates were washed 5× with 350 μl of assay buffer (50 mM Tris [pH 7.4], 200 mM NaCl, 0.01% Tween 20) on a 50 TS microplate washer (BioTek). Plates were blocked for 1 hour in 200 μl of assay buffer with 0.5% BSA. Plates were washed as before, and proteins were incubated on plates in 100 μl of assay buffer with 0.5% BSA. Proteins or heparin was incubated in orders described in the respective figure legends. Assays using FLAG-tag-based detection were incubated with anti-FLAG coupled to HRP at 1:20,000, and assays using Fc detection were incubated with anti-human Fc coupled to HRP at 1:10,000. Plates were washed as above, and 100 μl of 3,3′,5,5′-tetramethylbenzidine (TMB) substrate (E102, Bethyl Laboratories) was added for 15 to 20 minutes until positive wells developed a dark blue color. Reactions were stopped with ELISA stop solution (E115, Bethyl Laboratories) and analyzed using the Synergy HI plate reader (BioTek) at 450 nm wavelength. […] As a control to remove background absorbance values, wells were coated with an equal amount of BSA to match the amount of protein coated in experimental wells and treated the same as experimental wells. To study the effects of sKL on the binding between paracrine FGFs and FGFRs, plates were run as above except coated with paracrine FGFs. Fc-FGFR1 was preincubated with sKL or vehicle for 60 minutes, and then the combination was added to wells and the assay was run as before.

FGF2 binding to FGFR1c = target: T2, FGF2 binding to FGFR1c (Homo sapiens, UniProt P11362); assay: as above; conditions: 0.4 USP heparin before incubation with FGFR1c
T2 construct: a chimeric protein consisting of the FGFR1 ectodomain and the Fc region of a human IgG; purchased R&D Systems 233-FB/CF; 658FR050
T2 sequence (P11362 22-376 limits assumed): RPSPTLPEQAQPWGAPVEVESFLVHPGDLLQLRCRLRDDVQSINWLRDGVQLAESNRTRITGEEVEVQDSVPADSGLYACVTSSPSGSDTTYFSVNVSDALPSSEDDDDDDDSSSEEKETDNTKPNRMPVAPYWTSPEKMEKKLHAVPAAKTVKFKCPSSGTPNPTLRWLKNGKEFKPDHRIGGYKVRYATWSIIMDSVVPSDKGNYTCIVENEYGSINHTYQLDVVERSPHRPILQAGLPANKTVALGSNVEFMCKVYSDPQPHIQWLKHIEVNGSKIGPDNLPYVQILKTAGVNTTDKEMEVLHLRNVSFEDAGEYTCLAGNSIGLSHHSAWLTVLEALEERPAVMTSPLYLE
Experimental: as §1

FGF5 binding to FGFR1c = target: T3, FGF5 binding to FGFR1c (Homo sapiens, UniProt P11362); assay: as above; conditions: 0.4 USP heparin
T3 construct: a chimeric protein consisting of the FGFR1 ectodomain and the Fc region of a human IgG; purchased R&D Systems 237-F5/CF; 658FR050
Experimental: as §1

FGF23 binding to FGFR4 = target: T4, FGF23 binding to FGFR4 (Homo sapiens, UniProt P22455+Q9GZV9); assay: Plate-based binding, FGF23 coated, then sKL, heparin or PBS, then Fc-FGFR; conditions: with sKL, with heparin 0.4 USP, or alone
T4 construct: Fc-coupled FGFR ectodomains were immobilized on protein A/G beads; purchased R&D Systems 2604FG025/CF or 2629FG025/CF; 685FR050
Experimental: as §1

FGF23 binding to FGFR3c = target: T5, FGF23 binding to FGFR3c (Homo sapiens, UniProt P22607+Q9GZV9); assay: as above; conditions: with sKL, with heparin 0.4 USP, or alone
T5 construct: Fc-coupled FGFR ectodomains were immobilized on protein A/G beads; purchased R&D Systems 2604FG025/CF or 2629FG025/CF; 766FR050
Experimental: as §1

FGF23 binding to FGFR1c = target: T6, FGF23 binding to FGFR1c (Homo sapiens, UniProt P11362+Q9GZV9); assay: as above; conditions: with sKL, with heparin 0.4 USP, or alone
T6 construct: Fc-coupled FGFR ectodomains were immobilized on protein A/G beads; purchased R&D Systems 2604FG025/CF or 2629FG025/CF; 658FR050
Experimental: as §1

FGF23 binding to FGFR2c = target: T7, FGF23 binding to FGFR2c (Homo sapiens, UniProt P21802); assay: as above; conditions: with sKL, with heparin 0.4 USP, or alone
T7 construct: Fc-coupled FGFR ectodomains were immobilized on protein A/G beads; purchased R&D Systems 2604FG025/CF or 2629FG025/CF; 712FR050
Experimental: as §1

T7 sequence (P21802 22-377 limits assumed): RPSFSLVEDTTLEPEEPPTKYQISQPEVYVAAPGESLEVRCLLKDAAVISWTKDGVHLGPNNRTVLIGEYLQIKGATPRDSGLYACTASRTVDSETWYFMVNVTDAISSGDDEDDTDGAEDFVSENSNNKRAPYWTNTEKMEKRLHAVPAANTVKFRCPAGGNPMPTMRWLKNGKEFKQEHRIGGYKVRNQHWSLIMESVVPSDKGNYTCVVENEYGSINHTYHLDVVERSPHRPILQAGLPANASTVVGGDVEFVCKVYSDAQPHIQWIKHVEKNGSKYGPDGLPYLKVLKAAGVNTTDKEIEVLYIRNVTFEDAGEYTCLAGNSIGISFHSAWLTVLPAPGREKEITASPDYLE
T5 sequence (Q9GZV9 25-251): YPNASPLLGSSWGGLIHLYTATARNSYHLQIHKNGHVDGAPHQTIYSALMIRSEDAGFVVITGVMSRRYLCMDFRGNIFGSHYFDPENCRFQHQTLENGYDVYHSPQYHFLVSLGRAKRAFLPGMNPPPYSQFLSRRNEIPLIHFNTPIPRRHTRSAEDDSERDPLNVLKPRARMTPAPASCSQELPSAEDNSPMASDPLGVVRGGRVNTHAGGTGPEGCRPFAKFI
T5 sequence (P22607 23-375 limits assumed): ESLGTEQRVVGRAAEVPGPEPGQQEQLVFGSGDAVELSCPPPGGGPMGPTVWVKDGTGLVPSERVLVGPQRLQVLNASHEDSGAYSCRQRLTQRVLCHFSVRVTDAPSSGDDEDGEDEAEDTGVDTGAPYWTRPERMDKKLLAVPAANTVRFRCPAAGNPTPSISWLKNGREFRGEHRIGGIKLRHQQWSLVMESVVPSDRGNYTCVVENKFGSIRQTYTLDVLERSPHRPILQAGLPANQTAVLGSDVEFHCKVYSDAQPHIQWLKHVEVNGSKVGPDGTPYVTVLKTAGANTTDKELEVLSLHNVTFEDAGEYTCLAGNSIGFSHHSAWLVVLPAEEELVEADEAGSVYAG
T6 sequence (Q9GZV9 25-251, one chain of several): as the sequence (Q9GZV9 25-251) above
T4 sequence (Q9GZV9 25-251): as above
T4 sequence (P22455 22-369 limits assumed): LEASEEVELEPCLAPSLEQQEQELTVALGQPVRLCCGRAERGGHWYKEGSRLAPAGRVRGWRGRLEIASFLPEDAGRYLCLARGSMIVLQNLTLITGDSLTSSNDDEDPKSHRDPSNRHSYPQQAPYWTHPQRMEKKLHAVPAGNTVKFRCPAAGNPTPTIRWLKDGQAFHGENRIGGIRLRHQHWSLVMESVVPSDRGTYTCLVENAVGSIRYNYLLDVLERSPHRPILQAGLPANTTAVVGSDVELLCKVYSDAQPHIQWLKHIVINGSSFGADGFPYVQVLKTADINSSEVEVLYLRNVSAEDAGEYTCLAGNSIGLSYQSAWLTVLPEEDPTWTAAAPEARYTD

heparin [reference compound]
FGF23 effect on [Ca2+]i transients in the presence of heparin ([1]; FGF23 10 ng/ml with heparin 0.7 USP/ml): became statistically significant; also recorded: significantly increased | FGF23 effect on cell shortening with addition of heparin ([1]; FGF23 with heparin): significantly increased the effect of FGF23 | [Ca2+]i transients, heparin by itself ([1]; heparin 0.7 USP/ml): no significant effects | cell shortening, heparin by itself ([1]; heparin alone): no significant effects | FGF7 binding to FGFR1c with heparin (FGF7 binding to FGFR1c): did not induce binding | FGF2 binding to FGFR1c with heparin (FGF2 binding to FGFR1c): increased the binding of FGF2 | FGF2 binding to FGFR1c with heparin (FGF2 binding to FGFR1c; listed as heparin): significantly increased; also recorded: increased FGF2 binding | FGF5 binding to FGFR1c with heparin (FGF5 binding to FGFR1c): increased the binding of FGF2 and FGFS to FGFR1c | binding of coated FGF23 to Fc-FGFR4 (FGF23 binding to FGFR4): significantly increased; also recorded: the strongest | binding of coated FGF23 to Fc-FGFR3c (FGF23 binding to FGFR3c): no measurable binding | binding of coated FGF23 to Fc-FGFR1c (FGF23 binding to FGFR1c): no measurable binding | binding of coated FGF23 to Fc-FGFR2c (FGF23 binding to FGFR2c): to a much lesser extent to FGFR2c; also recorded: weaker binding to FGFR2c
